# Measurements from patent publication US7163952B2, “Azole compound and medicinal use thereof” (Japan Tobacco Inc., priority 2001, dated 2007).
# Where a name gives a salt, the structure may show the parent alone.
row,Structure (SMILES),melting point
1,"COc1ccc(OCc2ccc(C(F)(F)F)cc2)c(-c2csc(Nc3ccc(C(=O)O)cc3OCc3ccccc3)n2)c1 [Example 180, 3-benzyloxy-4-(4-(5-methoxy-2-(4-trifluoromethylbenzyloxy)phenyl)-2-thiazolylamino)benzoic acid]",227 to 230 °C
2,"CN(CCc1ccc(C(C)(C)C)cc1)c1ccc(-c2csc(N(C)Cc3ccc(C(=O)O)cc3)n2)cc1 [Example 235, 4-((N-(4-(4-(N-(2-(4-tert-butylphenyl)ethyl)-N-methylamino)phenyl)-2-thiazolyl)-N-methylamino)methyl)benzoic acid]",162 °C
3,"O=C(O)c1ccc(N(CC2CCCCC2)c2nc(-c3nc4ccc(OCc5ccc(C(F)(F)F)cc5C(F)(F)F)cc4o3)cs2)cc1 [Example 189, 4-(N-(4-(6-(2,4-bis(trifluoromethyl)benzyloxy)-2-benzooxazolyl)-2-thiazolyl)-N-cyclohexylmethylamino)benzoic acid]",213 to 214 °C
4,CN(Cc1ccc(C(=O)O)cc1)c1nc(-c2ccc(OCc3ccc(C4CCCCC4)cc3)cc2)cs1.O=S(=O)(O)O,182 to 183 °C
5,"O=C(O)c1ccc(Nc2nc(-c3cc(Cl)ccc3OCc3ccccc3)cs2)c(OCCC2CCCCC2)c1 [Example 150, 4-(4-(2-benzyloxy-5-chlorophenyl)-2-thiazolylamino)-3-(2-cyclohexylethoxy)benzoic acid]",230 °C (dec.)
6,"CN(CCc1ccc(N2CCOCC2)cc1)c1ccc(-c2csc(N(C)Cc3ccc(C(=O)O)cc3)n2)cc1 [Example 238, 4-((N-methyl-N-(4-(4-(N-methyl-N-(2-(4-morpholinophenyl)ethyl)amino)phenyl)-2-thiazolyl)amino)methyl)benzoic acid]",212 to 213 °C
7,"CN(Cc1ccc(C(F)(F)F)cc1)c1ccc(-c2csc(N(C)Cc3ccc(C(=O)O)cc3)n2)cc1 [Example 234, 4-((N-methyl-N-(4-(4-(N-methyl-N-(4-trifluoromethylbenzyl)amino)phenyl)-2-thiazolyl)amino)methyl)benzoic acid]",180 to 181 °C
8,"CC(C)N(Cc1ccc(C(=O)O)cc1)c1nc(-c2ccc(NS(=O)(=O)c3ccc(C(C)(C)C)cc3)cc2)cs1 [Example 104, 4-((N-(4-(4-(4-tert-butylbenzenesulfonylamino)phenyl)-2-thiazolyl)-N-isopropylamino)methyl)benzoic acid]",178 to 180 °C
9,"O=C(O)c1ccc(Nc2nc(-c3ccc(NC(=O)c4ccc(C5CCCCC5)cc4)cc3)cs2)cc1 [Example 6, 4-(4-(4-(4-cyclohexylbenzoylamino)phenyl)-2-thiazolylamino)benzoic acid]",250 °C (dec.)
10,"CC(C)N(Cc1ccc(C(=O)O)cc1)c1nc(-c2ccc(OCc3ccc(Cl)c(Cl)c3)cc2)cs1 [Example 77, 4-((N-(4-(4-(3,4-dichlorobenzyloxy)phenyl)-2-thiazolyl)-N-isopropylamino)methyl)benzoic acid]",180 to 181 °C
11,"O=C(O)c1ccc(N(CCC2CCCCC2)c2nc(-c3nc4cc(OCc5ccc(Cl)c(Cl)c5)ccc4[nH]3)cs2)cc1 (as salt: hydrochloride) [Example 185, 4-(N-(2-cyclohexylethyl)-N-(4-(5-(3,4-dichlorobenzyloxy)-2-benzoimidazolyl)-2-thiazolyl)amino)benzoic acid hydrochloride]",173 to 176 °C
12,"CN(C)CCN(c1ccc(C(=O)O)cc1)c1nc(-c2ccc(OCc3ccc(Cl)c(Cl)c3)cc2)cs1 [Example 97, 4-(N-(4-(4-(3,4-dichlorobenzyloxy)phenyl)-2-thiazolyl)-N-(2-dimethylaminoethyl)amino)benzoic acid]",230 °C (dec.)
13,"CC(C)CSc1ccc(CN(C)c2ccc(-c3csc(N(C)Cc4ccc(C(=O)O)cc4)n3)cc2)cc1 [Example 245, 4-((N-(4-(4-(N-(4-isobutylsulfanylbenzyl)-N-methylamino)phenyl)-2-thiazolyl)-N-methylamino)methyl)benzoic acid]",132 to 134 °C
14,CC(C)N(c1ccc(C(=O)O)c(Cl)c1)c1nc(-c2ccc(NC(=O)c3ccc(N4CCOCC4)cc3)cc2)cs1.Cl,220 °C (dec.)
15,"CN(Cc1ccc(C2CCCCC2)cc1)c1cc(-c2csc(N(C)Cc3ccc(C(=O)O)cc3)n2)cc(Cl)n1 [Example 228, 4-((N-(4-(2-chloro-6-(N-(4-cyclohexylbenzyl)-N-methylamino)-4-pyridyl)-2-thiazolyl)-N-methylamino)methyl)benzoic acid]",155 to 157 °C
16,"O=C(O)c1ccc(Cc2nc(-c3ccc(NC(=O)c4ccc(-n5cccc5)cc4)cc3)cs2)cc1 [Example 70, 4-(4-(4-(4-(1-pyrrolyl)benzoylamino)phenyl)-2-thiazolylmethyl)benzoic acid]",220 °C (dec.)
17,CC(C)N(c1cccc(C(=O)O)c1)c1nc(-c2ccc(NC(=O)c3ccc(N4CCOCC4)cc3)cc2)cs1.Cl,230 °C (dec.)
18,"CC(C)N(c1ccc(C(=O)O)cc1)c1nc(-c2cccc(OCc3ccc(C4CCCCC4)cc3)c2)cs1 [Example 141, 4-(N-(4-(3-(4-cyclohexylbenzyloxy)phenyl)-2-thiazolyl)-N-isopropylamino)benzoic acid]",189 to 190 °C

row,Structure (SMILES),melting point
1,"CN(Cc1ccc(C(=O)O)cc1)c1nc(-c2ccc(N(C)Cc3ccc(C(C)(C)C)cc3)c(Cl)c2)cs1 [Example 244, 4-((N-(4-(4-(N-(4-tert-butylbenzyl)-N-methylamino)-3-chlorophenyl)-2-thiazolyl)-N-methylamino)methyl)benzoic acid]",153 to 154 °C
2,"COc1ccc(OCc2ccc(C(F)(F)F)cc2)c(-c2csc(Nc3ccc(C(=O)O)cc3OCCC3CCCCC3)n2)c1 [Example 171, 3-(2-cyclohexylethoxy)-4-(4-(5-methoxy-2-(4-trifluoromethylbenzyloxy)phenyl)-2-thiazolylamino)benzoic acid]",111 to 114 °C
3,"CN(Cc1ccc(C(=O)O)cc1)c1nc(-c2cc(Cl)ccc2OCc2ccccc2)cs1 [Example 163, 4-((N-(4-(2-benzyloxy-5-chlorophenyl)-2-thiazolyl)-N-methylamino)methyl)benzoic acid]",169 to 171 °C
4,"CC(C)CN(c1ccc(C(=O)O)cc1)c1nc(-c2ccc(NC(=O)c3ccccc3)cc2)cs1 [Example 15, 4-(N-(4-(4-benzoylaminophenyl)-2-thiazolyl)-N-isobutylamino)benzoic acid]",234 to 235 °C
5,"CN(Cc1ccc([C@H]2CC[C@@H](O)CC2)cc1)c1ccc(-c2csc(N(C)Cc3ccc(C(=O)O)cc3)n2)cc1 [Example 194, cis-4-((N-(4-(4-(N-(4-(4-hydroxycyclohexyl)benzyl)-N-methylamino)phenyl)-2-thiazolyl)-N-methylamino)methyl)benzoic acid]",180 to 181 °C
6,"CN(Cc1ccc(C(=O)OCOC(=O)C(C)(C)C)cc1)c1nc(-c2ccc(OCc3ccc(C4CCCCC4)cc3)cc2)cs1 [Example 268, 2,2-dimethylpropionyloxymethyl 4-((N-(4-(4-(4-cyclohexylbenzyloxy)phenyl)-2-thiazolyl)-N-methylamino)methyl)benzoate]",88 to 90 °C
7,"CC(C)N(Cc1ccccc1C(=O)O)c1nc(-c2ccc(OCc3ccc(C4CCCCC4)cc3)cc2)cs1 [Example 88, 2-((N-(4-(4-(4-cyclohexylbenzyloxy)phenyl)-2-thiazolyl)-N-isopropylamino)methyl)benzoic acid]",259 to 261 °C
8,"CC(C)N(c1ccc(OCC(=O)O)cc1)c1nc(-c2ccc(NC(=O)c3cc(Cl)cc(Cl)c3)cc2)cs1 [Example 56, (4-(N-(4-(4-(3,5-dichlorobenzoylamino)phenyl)-2-thiazolyl)-N-isopropylamino)phenoxy)acetic acid]",192 to 194 °C
9,"CC(C)c1ccc(COc2ccc(Cl)cc2-c2csc(Nc3ccc(C(=O)O)cc3)n2)cc1 [Example 173, 4-(4-(5-chloro-2-(4-isopropylbenzyloxy)phenyl)-2-thiazolylamino)benzoic acid]",215 to 218 °C
10,"CCN(c1ccc(C(=O)O)cc1)c1nc(-c2ccc(NC(=O)C3CCCCC3)cc2)cs1 [Example 11, 4-(N-(4-(4-(cyclohexanecarbonylamino)phenyl)-2-thiazolyl)-N-ethylamino)benzoic acid]",250 °C (dec.)
11,"CN(c1ccc(C(=O)O)cc1)c1nc(-c2ccc(NCc3ccc(C(F)(F)F)cc3)cc2)cs1 [Example 133, 4-(N-methyl-N-(4-(4-(4-trifluoromethylbenzylamino)phenyl)-2-thiazolyl)amino)benzoic acid]",230 °C (dec.)
12,"CN(Cc1ccc(C(=O)O)cc1)c1nc(-c2cnc(N(C)Cc3ccc(C4CCCCC4)cc3)c(Cl)c2)cs1 [Example 232, 4-((N-(4-(5-chloro-6-(N-(4-cyclohexylbenzyl)-N-methylamino)-3-pyridyl)-2-thiazolyl)-N-methylamino)methyl)benzoic acid]",144 to 145 °C
13,"CC(C)N(Cc1ccc(C(=O)O)cc1)c1nc(-c2ccc(NC(=O)c3ccc(C4CCCCC4)cc3)cc2)cs1 [Example 61, 4-((N-(4-(4-(4-cyclohexylbenzoylamino)phenyl)-2-thiazolyl)-N-isopropylamino)methyl)benzoic acid]",250 °C (dec.)
14,"O=C(O)c1ccc(Nc2nc(-c3ccc(OCc4ccc(Cl)c(Cl)c4)cc3)cs2)cc1 [Example 94, 4-(4-(4-(3,4-dichlorobenzyloxy)phenyl)-2-thiazolylamino)benzoic acid]",230 °C (dec.)
15,"CC(C)CCN(c1ccc(C(=O)O)cc1)c1nc(-c2cc(Cl)ccc2OCc2ccccc2)cs1 [Example 168, 4-(N-(4-(2-benzyloxy-5-chlorophenyl)-2-thiazolyl)-N-(3-methylbutyl)amino)benzoic acid]",143 to 149 °C
16,"CC(C)(c1ccc(C(=O)O)cc1)c1nc(-c2ccc(OCc3ccc(-c4ccccc4)cc3)cc2)cs1 [Example 92, 4-(1-(4-(4-(4-biphenylylmethoxy)phenyl)-2-thiazolyl)-1-methylethyl)benzoic acid]",230 °C (dec.)
17,"COc1ccc(OCc2ccccc2)c(-c2csc(Nc3ccc(C(=O)O)cc3OCc3ccccc3)n2)c1 [Example 156, 3-benzyloxy-4-(4-(2-benzyloxy-5-methoxyphenyl)-2-thiazolylamino)benzoic acid]",218 to 221 °C
